Assay: molar heat capacity at constant volume
Settings: Fluid (supercritical or subcritical phases), Vacuum adiabatic calorimetry

CCC(C)O (stereo unspecified) [butan-2-ol]
Settings	molar heat capacity at constant volume [J/K/mol]
538.48 K, Mass density=279.19 kg/m3	275.36
538.48 K, Mass density=284.93 kg/m3	266.32
538.48 K, Mass density=286.65 kg/m3	296.63
538.48 K, Mass density=301.19 kg/m3	256.46
538.66 K, Mass density=117 kg/m3	318.5
538.66 K, Mass density=284.93 kg/m3	265.65
538.66 K, Mass density=286.65 kg/m3	296.86
538.66 K, Mass density=301.19 kg/m3	250.53
538.84 K, Mass density=117 kg/m3	306.2
538.84 K, Mass density=286.65 kg/m3	297.08
539.03 K, Mass density=286.65 kg/m3	296.34
539.57 K, Mass density=286.65 kg/m3	285.07
539.76 K, Mass density=279.19 kg/m3	283.52
539.76 K, Mass density=286.65 kg/m3	288.78
539.94 K, Mass density=184.89 kg/m3	261.35
539.94 K, Mass density=276.45 kg/m3	295.89
539.94 K, Mass density=279.19 kg/m3	284.48
539.94 K, Mass density=286.65 kg/m3	282.33
540.12 K, Mass density=184.89 kg/m3	273.06
540.12 K, Mass density=276.45 kg/m3	293.89
540.12 K, Mass density=279.19 kg/m3	283.74
540.12 K, Mass density=286.65 kg/m3	282.03
540.12 K, Mass density=403.55 kg/m3	223.85
540.3 K, Mass density=184.89 kg/m3	272.25
540.3 K, Mass density=276.45 kg/m3	297.6
540.3 K, Mass density=286.65 kg/m3	280.4
540.3 K, Mass density=403.55 kg/m3	225.33
540.48 K, Mass density=184.89 kg/m3	275.73
540.48 K, Mass density=276.45 kg/m3	293.15
540.48 K, Mass density=403.55 kg/m3	226.81
540.67 K, Mass density=184.89 kg/m3	280.18
540.67 K, Mass density=279.19 kg/m3	274.92
540.67 K, Mass density=403.55 kg/m3	223.85
540.85 K, Mass density=184.89 kg/m3	275.21
540.85 K, Mass density=279.19 kg/m3	281.29
540.85 K, Mass density=403.55 kg/m3	223.11
541.03 K, Mass density=279.19 kg/m3	276.47
541.03 K, Mass density=403.55 kg/m3	220.88
541.21 K, Mass density=279.19 kg/m3	278.4
541.4 K, Mass density=279.19 kg/m3	276.92
542.67 K, Mass density=301.19 kg/m3	240.15
542.85 K, Mass density=301.19 kg/m3	240.9
543.03 K, Mass density=301.19 kg/m3	240.15
547.21 K, Mass density=286.65 kg/m3	273.21
547.39 K, Mass density=286.65 kg/m3	272.69
547.57 K, Mass density=284.93 kg/m3	247.34
547.57 K, Mass density=286.65 kg/m3	276.33
547.75 K, Mass density=284.93 kg/m3	250.31
547.75 K, Mass density=286.65 kg/m3	276.62
547.93 K, Mass density=284.93 kg/m3	248.31
547.93 K, Mass density=286.65 kg/m3	276.1
548.11 K, Mass density=284.93 kg/m3	247.79
548.11 K, Mass density=286.65 kg/m3	276.33
548.11 K, Mass density=347.06 kg/m3	235.71
548.29 K, Mass density=284.93 kg/m3	248.68
548.29 K, Mass density=286.65 kg/m3	278.03
548.29 K, Mass density=347.06 kg/m3	236.45
548.47 K, Mass density=284.93 kg/m3	248.31
548.47 K, Mass density=286.65 kg/m3	278.55
548.47 K, Mass density=347.06 kg/m3	235.71
548.65 K, Mass density=286.65 kg/m3	278.03
548.65 K, Mass density=347.06 kg/m3	234.22
550.28 K, Mass density=284.93 kg/m3	236.74
550.46 K, Mass density=284.93 kg/m3	238.08
550.46 K, Mass density=403.55 kg/m3	218.66
550.64 K, Mass density=403.55 kg/m3	217.92
550.82 K, Mass density=284.93 kg/m3	236.52
550.82 K, Mass density=403.55 kg/m3	220.88
551 K, Mass density=284.93 kg/m3	236.3
551 K, Mass density=403.55 kg/m3	220.88
551.18 K, Mass density=403.55 kg/m3	220.14
551.36 K, Mass density=403.55 kg/m3	220.88
557.3 K, Mass density=286.65 kg/m3	252.16
557.3 K, Mass density=347.06 kg/m3	220.14
557.48 K, Mass density=286.65 kg/m3	253.13
557.48 K, Mass density=347.06 kg/m3	220.88
557.66 K, Mass density=286.65 kg/m3	251.94
557.66 K, Mass density=347.06 kg/m3	217.92
557.84 K, Mass density=286.65 kg/m3	252.16
557.84 K, Mass density=347.06 kg/m3	220.14
558.02 K, Mass density=286.65 kg/m3	253.64
558.2 K, Mass density=284.93 kg/m3	236.45
558.2 K, Mass density=286.65 kg/m3	258.98
558.38 K, Mass density=284.93 kg/m3	243.27
558.38 K, Mass density=286.65 kg/m3	261.43
558.56 K, Mass density=284.93 kg/m3	241.49
558.56 K, Mass density=286.65 kg/m3	257.05
558.74 K, Mass density=284.93 kg/m3	241.71
558.74 K, Mass density=286.65 kg/m3	258.02
558.92 K, Mass density=284.93 kg/m3	246.38
558.92 K, Mass density=286.65 kg/m3	259.28
559.09 K, Mass density=286.65 kg/m3	264.39
559.27 K, Mass density=286.65 kg/m3	254.83
559.45 K, Mass density=286.65 kg/m3	252.68
559.63 K, Mass density=286.65 kg/m3	264.39
560.64 K, Mass density=284.93 kg/m3	246.75
560.89 K, Mass density=286.65 kg/m3	262.17
561.24 K, Mass density=286.65 kg/m3	254.83
561.42 K, Mass density=286.65 kg/m3	257.28
561.6 K, Mass density=286.65 kg/m3	257.79
561.78 K, Mass density=286.65 kg/m3	256.83
561.96 K, Mass density=286.65 kg/m3	257.57
562.14 K, Mass density=286.65 kg/m3	257.05
562.32 K, Mass density=286.65 kg/m3	258.98
562.49 K, Mass density=286.65 kg/m3	254.61
562.67 K, Mass density=286.65 kg/m3	256.61
